Assay [1] has as its target T1, RecA (Escherichia coli, UniProt P0A7G6).
T1 sequence (P0A7G6 2-353): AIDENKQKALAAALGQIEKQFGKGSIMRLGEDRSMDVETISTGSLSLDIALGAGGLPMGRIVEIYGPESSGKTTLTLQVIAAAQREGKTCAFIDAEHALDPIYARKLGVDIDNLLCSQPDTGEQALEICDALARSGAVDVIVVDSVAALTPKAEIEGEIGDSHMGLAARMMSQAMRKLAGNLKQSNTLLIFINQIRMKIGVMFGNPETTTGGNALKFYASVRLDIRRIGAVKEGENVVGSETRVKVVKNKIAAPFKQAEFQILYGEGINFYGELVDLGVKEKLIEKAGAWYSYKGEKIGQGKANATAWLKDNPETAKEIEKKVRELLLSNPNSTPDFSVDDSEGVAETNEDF
The assay is described as follows: isothermal titration calorimetry. The assay is classed as binding. For orientation: ITC needs no label: the signal is the heat of the interaction.

In assay [2] the target is T2, RecA (Escherichia coli, UniProt P0A7G6, Y104A).
T2 sequence (P0A7G6 2-353 Y104A): T1 sequence (P0A7G6 2-353)
The assay is described as follows: isothermal titration calorimetry. It counts as binding.

By Kd is commonly meant the equilibrium constant for the complex coming apart.

For the compound `Cc1cc(-c2ccc(/N=N/c3ccc4c(S(=O)(=O)O)cc(S(=O)(=O)O)c(N)c4c3O)c(C)c2)ccc1/N=N/c1ccc2c(S(=O)(=O)O)cc(S(=O)(=O)O)c(N)c2c1O` [s06, Evans blue], at RecA [1], the Kd worked out at 11.5 µM. `COc1cc(-c2ccc(N=Nc3ccc4c(S(=O)(=O)O)cc(S(=O)(=O)O)c(N)c4c3O)c(OC)c2)ccc1N=Nc1ccc2c(S(=O)(=O)O)cc(S(=O)(=O)O)c(N)c2c1O` [s05, Chicago sky blue]: the Kd on RecA [1] amounted to 18.8 µM. As for `Cc1ccc(C(=O)Nc2ccc(S(=O)(=O)O)c3cc(S(=O)(=O)O)cc(S(=O)(=O)O)c23)cc1NC(=O)c1cccc(NC(=O)Nc2cccc(C(=O)Nc3cc(C(=O)Nc4ccc(S(=O)(=O)O)c5cc(S(=O)(=O)O)cc(S(=O)(=O)O)c45)ccc3C)c2)c1` [cpd01, suramin], the Kd was found to be 40.2 µM on RecA [2] and 17.6 µM on RecA [1].

These data come from article PMC7797525 (iScience, 2020).
